# Assay results as given in patent US20250127905A1, “GLUTARIMIDE COMPOUND AND USE THEREOF” (MEDSHINE DISCOVERY INC., priority 2021, published 2025).
# Counter-ions that a name gives are not always drawn.
# System: sodium urate-induced acute gouty arthritis
# Assay: Sodium urate-induced acute gouty arthritis in rats
# Type: in vivo, SD rats
# Description: It is to evaluate the preventive and therapeutic effect of compounds on sodium urate-induced acute gouty arthritis in rats. Animals: 5-week-old male SD rats; source: Zhejiang Vital River Laboratory Animal Technology Co., Ltd. Experimental grouping: After 3 days of acclimatization, all animals were measured for basal hindfoot volume, arthritis index score, and bilateral hindfoot pain threshold. 50 animals were selected and divided equally into 5 groups with 10 animals each based on body weight, hindfoot volume, arthritis index, and bilateral hindfoot pain threshold. The day of initiation of administration was recorded as D-1, and intragastric administration was performed twice a day for 6 consecutive days (D-1 to […]). 1 hour after the first administration at D0 (1 day after administration), except for the blank control group, the other rats were anesthetized with isoflurane, and 50 μL (50 mg/mL) of sodium urate solution was injected into the joint cavity for modeling at the lateral posterior side of the right ankle joint, which was used as a puncture point. Joint swelling would peak after 8 to 12 hours (lasting about 72 hours). Foot volumes of the animals were measured and arthritis index (AI) scoring was performed before and 2, 5, 8, 11, 24, 48, 72, and 96 hours after the onset of inflammation; pain thresholds were measured using a bipedal balance pain tester before and 2, 24, 48, 72, and 96 hours after the onset of inflammation. Photographs of critical swelling were taken at the peak of joint swelling (8 to 12 hours) in each group of animals and retained. Foot volume measurement: Before measurement, a line was drawn at the ankle joint of a rat with a marker to mark the position, and the instrument was added with clean water and zeroed to be ready for measurement. The hind limbs of the rat were placed in the water so that the marked line at the ankle joint was on the surface of the liquid, at which time the foot pedal was pressed to read the foot volume of the rat. At the end of the measurement, the foot pedal was pressed again for zeroing to be ready for the measurement of the next rat. Arthritis index (AI): The foot volume was measured while the swelling of the modeled foot was scored. Arthritis index scoring criteria: [table] Experimental data were expressed as Mean±SD; data were statistically analyzed using IBM SPSS Statistics 21, and p<0.05 was considered a significant difference between the two groups.
# [1] = 30 mg/kg intragastric twice a day, time 0 h
# [2] = 30 mg/kg intragastric twice a day, time 2 h
# [3] = 30 mg/kg intragastric twice a day, time 5 h
# [4] = 30 mg/kg intragastric twice a day, time 8 h
# [5] = 30 mg/kg intragastric twice a day, time 11 h
# [6] = 30 mg/kg intragastric twice a day, time 24 h
# [7] = 30 mg/kg intragastric twice a day, time 48 h
# [8] = 30 mg/kg intragastric twice a day, time 72 h
# [9] = 30 mg/kg intragastric twice a day, time 96 h
# [10] = 100 mg/kg intragastric twice a day, time 0 h
# [11] = 100 mg/kg intragastric twice a day, time 2 h
# [12] = 100 mg/kg intragastric twice a day, time 5 h
# [13] = 100 mg/kg intragastric twice a day, time 8 h
# [14] = 100 mg/kg intragastric twice a day, time 11 h
# [15] = 100 mg/kg intragastric twice a day, time 24 h
# [16] = 100 mg/kg intragastric twice a day, time 48 h
# [17] = 100 mg/kg intragastric twice a day, time 72 h
# [18] = 100 mg/kg intragastric twice a day, time 96 h
# [19] = 200 mg/kg intragastric twice a day, time 0 h
# [20] = 200 mg/kg intragastric twice a day, time 2 h
# [21] = 200 mg/kg intragastric twice a day, time 5 h
# [22] = 200 mg/kg intragastric twice a day, time 8 h
# [23] = 200 mg/kg intragastric twice a day, time 11 h
# [24] = 200 mg/kg intragastric twice a day, time 24 h
# [25] = 200 mg/kg intragastric twice a day, time 48 h
# [26] = 200 mg/kg intragastric twice a day, time 72 h
# [27] = 200 mg/kg intragastric twice a day, time 96 h
structure (smiles),measurement,setting,value
O=C1CCC(c2noc3c(NC(=O)CN4CCN(C[C@H]5CC[C@H](n6cc(NC(=O)c7cnn8ccc(N9C[C@H]%10C[C@@H]9CO%10)nc78)c(C(F)F)n6)CC5)CC4)cccc23)C(=O)N1 (stereo partly drawn) [Hydrochloride of WX015],Arthritis index,[1],0
same,Foot volume,[1],3.63 mL
same,Hindfoot weight-bearing difference,[1],0.69 g
same,Arthritis index,[2],1
same,Foot volume,[2],3.88 mL
same,Hindfoot weight-bearing difference,[2],19.09 g
same,Arthritis index,[3],1
same,Foot volume,[3],3.9 mL
same,Arthritis index,[4],1
same,Foot volume,[4],3.9 mL
same,Arthritis index,[5],1
same,Foot volume,[5],3.92 mL
same,Arthritis index,[6],0.9
same,Foot volume,[6],3.9 mL
same,Hindfoot weight-bearing difference,[6],13.22 g
same,Arthritis index,[7],0.5
same,Foot volume,[7],3.91 mL
same,Hindfoot weight-bearing difference,[7],6.6 g
same,Arthritis index,[8],0.3
same,Foot volume,[8],3.94 mL
same,Hindfoot weight-bearing difference,[8],4.3 g
same,Arthritis index,[9],0.1
same,Foot volume,[9],3.96 mL
same,Hindfoot weight-bearing difference,[9],2.1 g
same,Arthritis index,[10],0
same,Foot volume,[10],3.63 mL
same,Hindfoot weight-bearing difference,[10],0.12 g
same,Arthritis index,[11],1
same,Foot volume,[11],3.85 mL
same,Hindfoot weight-bearing difference,[11],16.38 g
same,Arthritis index,[12],1
same,Foot volume,[12],3.88 mL
same,Arthritis index,[13],1
same,Foot volume,[13],3.9 mL
same,Arthritis index,[14],1
same,Foot volume,[14],3.91 mL
same,Arthritis index,[15],0.6
same,Foot volume,[15],3.88 mL
same,Hindfoot weight-bearing difference,[15],12.2 g
same,Arthritis index,[16],0.3
same,Foot volume,[16],3.9 mL
same,Hindfoot weight-bearing difference,[16],5.72 g
same,Arthritis index,[17],0.2
same,Foot volume,[17],3.93 mL
same,Hindfoot weight-bearing difference,[17],3 g
same,Arthritis index,[18],0
same,Foot volume,[18],3.95 mL
same,Hindfoot weight-bearing difference,[18],2.01 g
same,Arthritis index,[19],0
same,Foot volume,[19],3.62 mL
same,Hindfoot weight-bearing difference,[19],-0.23 g
same,Arthritis index,[20],1
same,Foot volume,[20],3.84 mL
same,Hindfoot weight-bearing difference,[20],14.81 g
same,Arthritis index,[21],1
same,Foot volume,[21],3.88 mL
same,Arthritis index,[22],1
same,Foot volume,[22],3.89 mL
same,Arthritis index,[23],1
same,Foot volume,[23],3.88 mL
same,Arthritis index,[24],0.5
same,Foot volume,[24],3.87 mL
same,Hindfoot weight-bearing difference,[24],11.32 g
same,Arthritis index,[25],0.2
same,Foot volume,[25],3.89 mL
same,Hindfoot weight-bearing difference,[25],3.91 g
same,Arthritis index,[26],0
same,Foot volume,[26],3.91 mL
same,Hindfoot weight-bearing difference,[26],2.1 g
same,Arthritis index,[27],0
same,Foot volume,[27],3.93 mL
same,Hindfoot weight-bearing difference,[27],1.94 g
